According to patent US11999720B2, “Pyrazolylacylpyrazoline compounds and method for treating pain” (THE TRUSTEES OF INDIANA UNIVERSITY, priority 2018, dated 2024):
Entries after “also recorded” stand apart in the source; their conditions may differ. Where two headings read alike, the source gives them in different places.

Tests used:
CaVα1CaVβ3 interaction = molecular target: T1, CaVα1CaVβ3 interaction (Rattus norvegicus, UniProt P54287); assay: fluorescence polarization assay, inhibition constant; type: binding; settings: for Ki: fluorescence polarization assay
T1 construct: made in house; host or cells: E. coli BL21(DE3)
Experimental: The plasmid of pET28a-CaV2.2β3 subunit was transformed into competent E. Coli BL21(DE3) strain. Culture was grown in LB medium at 37° C. to an OD600 of approximately 0.6 and then induced with 0.5 mM IPTG at 16° C. for 16 h. Cells were collected by centrifugation and lysed by microfluidizer in lysis buffer (phosphate buffer, pH 7.6, 2 mM DTT). The His-CaVβ3 protein was purified at 4° C. using Ni-IMAC chromatography (His-Trap HP, GE Healthcare) and eluted with 500 mM imidazole in lysis buffer with a gradient method. After the fractions consisted of His-CaVβ3 was combined and concentrated, the protein was further purified using size exclusion chromatography (Superdex 200 pg, GE Healthcare) in PBS with 2 mM DTT.
Compound 6 forms a salt bridge interaction with Arg-307 through a benzoic acid moiety. […] Arg-307 was mutated to alanine.

[1] = tested on: tibial nerve injury (TNI) model of neuropathic pain; assay: tibial nerve injury (TNI) model of neuropathic pain, von Frey withdrawal threshold; type: in vivo, rat
Experimental: Pathogen-free, adult, female Sprague Dawley (weight at testing 150-200 g; Harlan-Sprague-Dawley, Indianapolis, IN) were housed in a climate-controlled room on a 12-hour light/dark cycle and were allowed to have food and water ad libitum. All procedures were approved by the Indiana University Animal Care and Use Committee and conformed to the guidelines of the National Institutes of Health (publication no. 80-23, 1966) for the use of laboratory animals. All behavioral experiments were conducted by experimenters blinded to the treatment conditions and compound identity. The experiments were replicated a minimum of 2 times with independent cohorts of animals.
For in vivo studies, the inventive compounds were freshly prepared saline (0.9%) on the day of the experiment. Morphine sulfate salt (Sigma-Aldrich, St. Louis, MO) was freshly prepared on the day of the experiment in saline. […]
The inventive compounds were assessed with the tibial nerve injury (TNI) model of neuropathic pain 28 days after surgery. Using isoflurane anesthesia (4% induction and 2% maintenance), the right sciatic nerve was isolated under aseptic surgical conditions by blunt dissection of the femoral biceps muscle and the tibial nerve was tightly ligated with 5-0 silk and transected distal to the ligation. Additional 2 to 3 mm of distal nerve stump was removed to prevent reinnervation by the proximal nerve. The overlying muscle and skin was then sutured in 2 separate layers. Sham-injured animals were subjected to all preceding procedures with the exception of ligation and transection. All animals were returned to the housing facility and allowed to survive for 28 d. Mechanical stimuli were applied with 7 filaments, each differing in the bending force delivered (10, 20, 40, 60, 80, 100, and 120 mN), and fitted with a flat tip and fixed diameter of 0.2 mm. The filaments were tested in the order of ascending force, with each filament delivered for 1 second. Withdrawal threshold was determined by sequentially increasing and analyzed with Hill equation was fitted to the function (Origin version 6.0; Microcal Software) relating the percentage of indentations eliciting a withdrawal to the force of indentation.

[2] = tested on: T2, CaV2.2 channels in HEK-CaV2.2 cells (Rattus norvegicus); assay: whole cell patch-clamp, CaV2.2 currents in HEK-CaV2.2 cells; type: cell-based
T2 construct: expressed in transfected cells
Experimental: The G-V curves are shown.
HEK-CaV2.2 cells were pretreated with various concentrations of compound 14 for 48 hours. CaV2.2 currents were acquired during 20-ms depolarizing pulses, and the current densities were calculated as a ratio of the peak current amplitude and each cell capacitance (0.1 μM, n=6; 1 μM, n=7; 10 μM, n=8; 50 μM, n=12). The line is the fit of the data to the four-parameter logistic function.
EK-CaV2.2 cells were pretreated with the indicated compounds for 48 hours. *** corresponds to […].
FIGS. 8 and 9 show the effects of 2 and 14 on the voltage dependence of activation of CaV2.2 channels in HEK-CaV2.2 cells pretreated with the vehicle or the indicated compounds for 48 hours. […] The gray vertical lines are the error bars (S.E.M.).
FIGS. 10 and 11 show acute effects of DMSO and 14 on the voltage dependence of activation of CaV2.2 channels in HEK-CaV2.2 cells. […] The gray vertical lines are the error bars (S.E.M.). “ns”—stands for not significant.
The whole cell patch-clamp technique was used to record CaV2.2 currents in HEK-CaV2.2 cells and rat DRG neurons. HEK293 cells that stably expressed rat N-type CaV2.2α1B, rat CaVβ3, and rat […] were utilized. Cells were grown in Dulbecco's modified Eagle's medium (DMEM) supplemented with 10% FBS, 50 units penicillin, 50 μg/ml streptomycin, 5 μg/ml blasticidin, 5 μg/ml hydromycin and 25 μg/ml zeozin at 37° C. in a humidified atmosphere of 95% air and 5% CO2. For patch clamp experiments, HEK-CaV2.2 cells were plated on glass coverslips and were cultured for 24-48 h. All animal procedures were performed in accordance to the NIH guide and were approved by the Indiana University School of Medicine Institutional Animal Care and Use Committee. Young adult Sprague Dawley rats were anesthetized (3% isoflurane) and then decapitated. The spinal column was removed, cut open, and dorsal root ganglia were harvested from the Lumbar L4-L6 vertebral levels. The ganglia were incubated in DMEM containing collagenase (1 mg/ml, Worthington: LS04194) and protease (1 mg/ml, Worthington: LS02104) for 30-60 minutes, and DRG neurons were dissociated by triturating in DMEM supplemented with 10% FBS. The isolated DRG neurons were plated on glass coverslips coated with growth factor reduced Matrigel (Thermo Fisher Scientific, Waltham, MA) and were cultured in Eagle's minimum essential medium (Invitrogen, CA) supplemented with 0.2% BSA and 20 ng/ml NGF-2.5S (BD Biosciences, Bedford, MA) at 37° C. in a water-jacketed 5% CO2 incubator overnight for the patch-clamp experiments.

[3] = pharmacokinetics, plasma concentrations by LC-MS/MS after IV and PO administration; type: in vivo, Kunming mice; settings: Kunming, mouse; for half-life: read-out: elimination half-life (converted); for Cmax: read-out: Cmax peak plasma concentration
Experimental: Plasma concentrations at various time points were determined using liquid chromatography tandem mass spectroscopy (LC-MS/MS). For intravenous (IV) administration, compound 14 was formulated as a solution at a final dose of 1 mg/kg.
For oral gavage (PO) administration, compound 14 was formulated as a solution at a final dose of 10 mg/kg. Plasma concentrations at various time points were determined using LC-MS/MS.
PK profiles of compound 14 after intravenous and oral administration was performed in Kunming mice. Plasma concentrations were determined by liquid chromatography tandem mass spectroscopy. Summary of PK properties and plasma concentration measured 1 hour after intravenous or oral administration of 1 or 10 mg/kg compound 14.

T2 sequence (P54287 whole entry): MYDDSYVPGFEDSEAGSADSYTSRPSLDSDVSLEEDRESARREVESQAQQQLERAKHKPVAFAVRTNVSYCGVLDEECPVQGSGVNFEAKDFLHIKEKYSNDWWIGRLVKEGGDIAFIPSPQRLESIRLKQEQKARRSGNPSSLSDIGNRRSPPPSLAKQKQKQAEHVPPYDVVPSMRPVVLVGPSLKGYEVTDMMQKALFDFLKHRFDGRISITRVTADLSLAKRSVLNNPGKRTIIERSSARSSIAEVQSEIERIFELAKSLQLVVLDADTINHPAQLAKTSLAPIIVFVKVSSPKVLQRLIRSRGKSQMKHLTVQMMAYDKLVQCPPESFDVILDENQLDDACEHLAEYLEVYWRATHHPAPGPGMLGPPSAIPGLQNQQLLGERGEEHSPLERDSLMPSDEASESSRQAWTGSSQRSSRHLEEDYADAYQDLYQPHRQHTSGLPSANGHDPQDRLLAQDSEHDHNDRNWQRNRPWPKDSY
T1 sequence (P54287 whole entry): as above

## COc1ccc(C2=NN(c3cccc(C(=O)O)c3)C(c3cn(-c4ccccc4)nc3-c3ccc(C)cc3)C2)cc1 (centres unmarked) [Compound 11, 3-(5-(4-methoxyphenyl)-1′-phenyl-3′-(p-tolyl)-3,4-dihydro-1′H,2H-[3,4′-bipyrazol]-2-yl)benzoic acid]
CaVα1CaVβ3 interaction
  Ki: 3.9 ± 0.9 µM

## COc1ccc(C2=NN(C(=O)c3cccc(-c4nnn[nH]4)c3)C(c3cn(-c4ccccc4)nc3-c3ccc(C)cc3)C2)cc1 (centres unmarked) [Compound 14, (3-(1H-tetrazol-5-yl)phenyl)(5-(4-methoxyphenyl)-1′-phenyl-3′-(p-tolyl)-3,4-dihydro-1′H,2H-[3,4′-bipyrazol]-2-yl)methanone]
[1]; 0.1 mg/kg single bolus, 1 and 24 h post-dosing, 4 weeks after TNI
  reversal of mechanical hypersensitivity (PWT): significantly reversed mechanical hypersensitivity at both 1 and 24 h post-dosing; also recorded: significantly increased PWTs at both 1 and 24 hours post-injection
CaVα1CaVβ3 interaction
  Ki: 2 ± 0.2 µM
[2]; 50 μM, pretreated 48 hours
  steady-state inactivation V0.5, inact: −52.9±1.3 mV
[2]; pretreated 48 hours, current densities, four-parameter logistic fit, read-out: apparent IC50 for inhibition of CaV2.2 currents
  IC50: 31 µM
[2]; pretreated 48 hours, DMSO 8.7±1.1
  mean half-activation potential V0.5, act: 16.5±1.1 mV
[3]; IV, 1 mg/kg
  half-life: 17.4 min
[3]; iv, 1 mg/kg
  AUC(0-t): 58 ng·h/mL
  Tmax: 4.98 min
  Cmax: 181 ng/mL
[3]; oral gavage (PO), 10 mg/kg
  AUC(0-t): 636 ng·h/mL
  Tmax: 60 min
  Cmax: 165 ng/mL
  half-life: 119 min

## COC(=O)c1cccc(C(=O)N2N=C(c3ccc(OC)cc3)CC2c2cn(-c3ccccc3)nc2-c2ccc(C)cc2)c1 (centres unmarked) [Compound 7, methyl 3-(5-(4-methoxyphenyl)-1′-phenyl-3′-(p-tolyl)-3,4-dihydro-1′H,2H-[3,4′-bipyrazole]-2-carbonyl)benzoate]
CaVα1CaVβ3 interaction; removal of the charge of the benzoic acid moiety
  inhibition of the CaVα1CaVβ3 interaction: complete loss of inhibition

## CN1CC[C@]23c4c5ccc(O)c4O[C@H]2[C@@H](O)C=C[C@H]3[C@H]1C5.O=S(=O)(O)O [morphine, Morphine sulfate salt, reference compound]
[1]; 5 mg/kg systemic, 28 days after TNI
  withdrawal threshold to von Frey stimulation: 32±2.6 mN

## COc1ccc(C2=NN(C(=O)c3cccc(C(=O)O)c3)C(c3cn(-c4ccc(OC)cc4)nc3-c3ccc(C)cc3)C2)cc1 (centres unmarked) [Compound 10, 3-(1′,5-bis(4-methoxyphenyl)-3′-(p-tolyl)-3,4-dihydro-1′H,2H-[3,4′-bipyrazole]-2-carbonyl)benzoic acid]
CaVα1CaVβ3 interaction
  Ki: 3.7 ± 0.2 µM

## COc1ccc(C2=NN(C(=O)c3cccc(C(=O)O)c3)C(c3cn(-c4ccccc4)nc3-c3ccc(-c4ncc[nH]4)cc3)C2)cc1 (centres unmarked) [Compound 15, 3-(3′-(4-(1H-imidazol-2-yl)phenyl)-5-(4-methoxyphenyl)-1′-phenyl-3,4-dihydro-1′H,2H-[3,4′-bipyrazole]-2-carbonyl)benzoic acid]
[2]; 50 μM, 5 min incubation, before 6.4±1.9
  half-activation voltage V0.5, act after acute treatment: 11.4±1.7 mV
[2]; 50 μM, pretreated 48 hours, depolarizing pulses to 0 mV from holding potential −80 mV, DMSO −74.8±7.0
  density of CaV2.2 currents: −11.1±2.4 pA/pF

## Cc1ccc(-c2nn(-c3ccccc3)cc2C2CC(c3ccc(-c4ccccn4)cc3)=NN2C(=O)CCC(=O)O)cc1 (centres unmarked) [Compound 4, 4-oxo-4-(1′-phenyl-5-(4-(pyridin-2-yl)phenyl)-3′-(p-tolyl)-3,4-dihydro-1′H,2H-[3,4′-bipyrazol]-2-yl)butanoic acid]
CaVα1CaVβ3 interaction
  Ki: 2.2 ± 0.3 µM

## COc1ccc(C2=NN(C(=O)c3cccc(C(=O)O)c3)C(c3cn(-c4cccnc4)nc3-c3ccc(C)cc3)C2)cc1 (centres unmarked) [Compound 12, 3-(5-(4-methoxyphenyl)-1′-(pyridin-3-yl)-3′-(p-tolyl)-3,4-dihydro-1′H,2H-[3,4′-bipyrazole]-2-carbonyl)benzoic acid]
CaVα1CaVβ3 interaction
  Ki: 5 ± 1.9 µM

## COc1ccc(C2=NN(C(=O)CCC(=O)O)C(c3cn(-c4ccccc4)nc3-c3ccc(C)cc3)C2)cc1 (centres unmarked) [Compound 1]
CaVα1CaVβ3 interaction
  Ki: 6.7 ± 0.3 µM

## COc1ccc(C2=NN(C(=O)c3cccc(C(=O)O)c3)C(c3cn(-c4ccccc4)nc3-c3ccc(Cl)cc3)C2)cc1 (centres unmarked) [Compound 8, 3-(3′-(4-chlorophenyl)-5-(4-methoxyphenyl)-1′-phenyl-3,4-dihydro-1′H,2H-[3,4′-bipyrazole]-2-carbonyl)benzoic acid]
CaVα1CaVβ3 interaction
  Ki: 1.2 ± 0.1 µM
